In patent US20190382850A1, “METHOD FOR IDENTIFYING MITOCHONDRIAL DNA IN EXTRACELLULAR VESICLES AND TREATMENT OF MTDNA-RELATED DISORDERS AND CANCER” (Memorial Sloan-Kettering Cancer Center, priority 2017, published 2019):

Experiments:
mu-mtDNAhi HTR cells = assay: Proliferation in presence of OXPHOS inhibitors ± HT; assay type: cell-based, human; settings: with and without fulvestrant; atovaquone 1 μM, rotenone 100 nM, oligomycin 200 nM; FIG. 2f, 8e
Excerpt: (Panel a) Representative tumor growth kinetics (BLI) of GFP+/Luciferase+MCF7 xenografts (n=10) treated with weekly fulvestrant once mammary fat pad tumors were established (after 3 months) which led to a period (4 months) of disease stability on HT (HTS) followed by exponential growth on HT (HTR). Representative H&E images of tumors and primary cultures from unsorted as well as FACS purified cancer cells (GFP+/Epcam+) and murine CAFs (GFP−/Epcam). Scale bar 20 μm. (Panel b) OXPHOS potential in tumor-derived cancer cells (panel a) was measured±HT (fulvestrant, 10 μM) by Seahorse. […] (Panel d) Percentage of metastatic lesions isolated by FACS from tumor-bearing mice (n=8/group) expressing murine mtDNA as determined by ND1 qPCR (2 ng of total DNA). Oxygen consumption rates (OCR) in murine-mtDNApos and ctrl HTR cells determined by Seahorse. (Panel e) Murine mitochondrial RNA expression (12 genes: ND1, ND2, COX2, ATP8, ATP6, COX3, ND3, ND4L, ND4, ND5, ND6, CytB) as fold change (logioscale) determined by qRT-PCR in HTR and HTS cells (panel a). […]
FIG. 8 reports that OXPHOS inhibition abrogates HTR disease. (Panel a), Proliferation potential as determined by in vitro cell growth (CalceinAM) in luminal (ER+) and triple negative cancer cell lines cultured in media with increasing concentration of glucose. […]

HTS cells = assay: as above; assay type: cell-based, human; settings: with and without fulvestrant
Procedure: FIG. 8 reports that OXPHOS inhibition abrogates HTR disease. (Panel a), Proliferation potential as determined by in vitro cell growth (CalceinAM) in luminal (ER+) and triple negative cancer cell lines cultured in media with increasing concentration of glucose. (Panel b), Oxygen consumption rates (OCR)±oligomycin (200 nM)/rotenone (100 nM) in MCF7 and MDA-MB-231 cells as determined by seahorse technology. (Panel c), Desmin immunohistochemical images of CAFs in HTS/HTR-derived tissues (scale bar 25 μm). (Panel d), Schematic analysis of the generation of metastatic HTR disease in mice. […] Metastatic burden was analyzed by BLI and at necropsy by histological examination (H&E). (Panel e), Proliferation potential in presence of oligomycin (100 nM) and ±HT as determined by in vitro BLI in metastatic cells from HTS and HTR cells FACS purified from xenografts (FIG. 2a). […] (Panel f), mtDNA/nDNA level in circulating EVs from HTR xenografts as determined by copy number (GAPDH, ND1: qPCR Fold change). […]
For immunoblotting assays, cells were lysed in buffer (50 mmol/L Tris at pH 7.5, 150 mmol/L NaCl, 5 μg/mL aprotinin, pepstatin, 1% NP-40, lmmol/L EDTA, 0.25% deoxycholate, and protease inhibitor cocktail tablet, Sigma). […] The enrichment of CAFs in xenografts was determined by desmin immunohistochemistry (IHC) in tumor-derived sections. […]

MCF7 model metastases = assay: Metastatic assay: mastectomy followed by adjuvant HT in MCF7 tumor-bearing mice; assay type: in vivo; settings: adjuvant tamoxifen after mastectomy, followed ~9 months
Procedure: FIG. 8 reports that OXPHOS inhibition abrogates HTR disease. (Panel a), Proliferation potential as determined by in vitro cell growth (CalceinAM) in luminal (ER+) and triple negative cancer cell lines cultured in media with increasing concentration of glucose. (Panel b), Oxygen consumption rates (OCR)±oligomycin (200 nM)/rotenone (100 nM) in MCF7 and MDA-MB-231 cells as determined by seahorse technology. (Panel c), Desmin immunohistochemical images of CAFs in HTS/HTR-derived tissues (scale bar 25 μm). (Panel d), Schematic analysis of the generation of metastatic HTR disease in mice. […] Metastatic burden was analyzed by BLI and at necropsy by histological examination (H&E). (Panel e), Proliferation potential in presence of oligomycin (100 nM) and ±HT as determined by in vitro BLI in metastatic cells from HTS and HTR cells FACS purified from xenografts (FIG. 2a). Error bars, mean±s.d. of BLI from n=3 samples. (Panel f), mtDNA/nDNA level in circulating EVs from HTR xenografts as determined by copy number (GAPDH, ND1: qPCR Fold change). Data are reported as error bars, mean±s.d. of n=3 independent experiments (a, e-g). *P<0.05 (Student's t-test) and GLM anova after multiple comparisons (a).
All cancer cell lines were engineered to express a GFP positive luciferase expression vector for in vitro and in vivo imaging studies. […] EV-number was determined by Nanosight. […]

Jak2 = assay: EV mtDNA copy number from CAFs in hypoxia reoxygenation ± Jak2 inhibitor; assay type: cell-based; settings: 500 nM every 3 days, FIG. 14
Procedure: FIG. 14 reports that hypoxia reoxygenation culture condition increases EV mtDNA copy number in a Jak2-Stat(s) dependent manner. 10-cm plates with 10^6 cells (CAFs) were cultured in 1% O2 (hypoxia) for 4 days and 3 days in normal culture conditions (20% O2, hyperoxia) in presence/absence of Jak2 inhibitor (500 nM every 3 days). Conditioned media for EV isolation and DNA level from EVs was analyzed. As control, EVs from 20% O2, hyperoxia were also collected and analyzed. MtDNA as copy number is shown as bar graphs, mean±error bars of ND1 level obtained from EV-DNA (10 ng total DNA).

CC[C@H]1/C=C/C=C/C[C@@H](C)[C@H](O)[C@@](C)(O)C(=O)[C@@H](C)[C@H](O)[C@@H](C)C(=O)[C@@H](C)[C@H](O)[C@@H](C)/C=C/C(=O)O[C@@H]2[C@H](C)[C@H](CC1)O[C@]1(CC[C@H](C)[C@H](C[C@@H](C)O)O1)[C@H]2C [oligomycin]
sensitivity of HTR cells to HT (proliferation) (mu-mtDNAhi HTR cells): re-sensitized HTR cells to HT
combined effect with HT on cell proliferation and/or cell death of HTS cells (HTS cells): no synergistic effect

C=C(C)[C@H]1Cc2c(ccc3c2O[C@@H]2COc4cc(OC)c(OC)cc4[C@@H]2C3=O)O1 [rotenone]
sensitivity of HTR cells to HT (proliferation) (mu-mtDNAhi HTR cells): re-sensitized HTR cells to HT
combined effect with HT on cell proliferation and/or cell death of HTS cells (HTS cells): no synergistic effect

CC/C(=C(\c1ccccc1)c1ccc(OCCN(C)C)cc1)c1ccccc1 [tamoxifen]
HT treated mice with no evidence of disease (MCF7 model metastases): 90%
HT treated mice with wide-spread (>20) HTR metastases involving multiple organs (MCF7 model metastases): 10%

Cc1cc(Nc2nc(N[C@@H](C)c3ncc(F)cn3)ncc2Cl)[nH]n1 [AZD 1490]
generation of mtDNA high EVs (Jak2): hampering the generation of mtDNA high EVs
